Measurements: the kinase profiling compilation of Christmann-Franck et al. (2016)

Legend:
Test in all cases: radiometric filter-binding kinase assay
[1] = system: AKT1 (human), P31749 [S473D]
[2] = target: BTK (human) (UniProt Q06187)
[3] = target: CSNK2A1 (human) (UniProt P68400)
[4] = target: CaMK1 (human) (UniProt Q14012)
[5] = target: DAPK1 (human) (UniProt P53355)
[6] = target: DYRK1A (human) (UniProt Q13627)
[7] = target: DYRK2 (human) (UniProt Q92630)
[8] = target: DYRK3 (human) (UniProt O43781)
[9] = target: EEF2K (human) (UniProt O00418)
[10] = target: EPHA2 (human) (UniProt P29317)
[11] = target: EPHB1 (human) (UniProt P54762)
[12] = target: EPHB3 (human) (UniProt P54753)
[13] = target: ERBB4 (human) (UniProt Q15303)
[14] = target: HIPK1 (human) (UniProt Q86Z02)
[15] = target: HIPK2 (human) (UniProt Q9H2X6)
[16] = target: HIPK3 (human) (UniProt Q9H422)
[17] = target: IKBKE (human) (UniProt Q14164)
[18] = system: LCK (mouse); conditions: accession and sequence are those of the human protein
[19] = target: MAP2K6 (human) (UniProt P52564)
[20] = target: MAP3K9 (human) (UniProt P80192)
[21] = target: MAPK11 (human) (UniProt Q15759)
[22] = target: MAPK13 (human) (UniProt O15264)
[23] = target: MAPK14 (human) (UniProt Q16539)
[24] = target: MAPKAPK5 (human) (UniProt Q8IW41)
[25] = target: MARK1 (human) (UniProt Q9P0L2)
[26] = target: MARK3 (human) (UniProt P27448)
[27] = target: MST4 (human) (UniProt Q9P289)
[28] = target: NEK6 (human) (UniProt Q9HC98)
[29] = target: NUAK1 (human) (UniProt O60285)
[30] = target: PAK4 (human) (UniProt O96013)
[31] = target: PAK6 (human) (UniProt Q9NQU5)
[32] = target: PAK7 (human) (UniProt Q9P286)
[33] = target: PRKCZ (human) (UniProt Q05513)
[34] = system: ROCK2 (rat); conditions: accession and sequence are those of the human protein
[35] = target: RPS6KA5 KD1 KD2 (human) (UniProt O75582)
[36] = target: TAOK1 (human) (UniProt Q7L7X3)

Sequence of ERBB4 (human) (Q15303 whole entry, looked up): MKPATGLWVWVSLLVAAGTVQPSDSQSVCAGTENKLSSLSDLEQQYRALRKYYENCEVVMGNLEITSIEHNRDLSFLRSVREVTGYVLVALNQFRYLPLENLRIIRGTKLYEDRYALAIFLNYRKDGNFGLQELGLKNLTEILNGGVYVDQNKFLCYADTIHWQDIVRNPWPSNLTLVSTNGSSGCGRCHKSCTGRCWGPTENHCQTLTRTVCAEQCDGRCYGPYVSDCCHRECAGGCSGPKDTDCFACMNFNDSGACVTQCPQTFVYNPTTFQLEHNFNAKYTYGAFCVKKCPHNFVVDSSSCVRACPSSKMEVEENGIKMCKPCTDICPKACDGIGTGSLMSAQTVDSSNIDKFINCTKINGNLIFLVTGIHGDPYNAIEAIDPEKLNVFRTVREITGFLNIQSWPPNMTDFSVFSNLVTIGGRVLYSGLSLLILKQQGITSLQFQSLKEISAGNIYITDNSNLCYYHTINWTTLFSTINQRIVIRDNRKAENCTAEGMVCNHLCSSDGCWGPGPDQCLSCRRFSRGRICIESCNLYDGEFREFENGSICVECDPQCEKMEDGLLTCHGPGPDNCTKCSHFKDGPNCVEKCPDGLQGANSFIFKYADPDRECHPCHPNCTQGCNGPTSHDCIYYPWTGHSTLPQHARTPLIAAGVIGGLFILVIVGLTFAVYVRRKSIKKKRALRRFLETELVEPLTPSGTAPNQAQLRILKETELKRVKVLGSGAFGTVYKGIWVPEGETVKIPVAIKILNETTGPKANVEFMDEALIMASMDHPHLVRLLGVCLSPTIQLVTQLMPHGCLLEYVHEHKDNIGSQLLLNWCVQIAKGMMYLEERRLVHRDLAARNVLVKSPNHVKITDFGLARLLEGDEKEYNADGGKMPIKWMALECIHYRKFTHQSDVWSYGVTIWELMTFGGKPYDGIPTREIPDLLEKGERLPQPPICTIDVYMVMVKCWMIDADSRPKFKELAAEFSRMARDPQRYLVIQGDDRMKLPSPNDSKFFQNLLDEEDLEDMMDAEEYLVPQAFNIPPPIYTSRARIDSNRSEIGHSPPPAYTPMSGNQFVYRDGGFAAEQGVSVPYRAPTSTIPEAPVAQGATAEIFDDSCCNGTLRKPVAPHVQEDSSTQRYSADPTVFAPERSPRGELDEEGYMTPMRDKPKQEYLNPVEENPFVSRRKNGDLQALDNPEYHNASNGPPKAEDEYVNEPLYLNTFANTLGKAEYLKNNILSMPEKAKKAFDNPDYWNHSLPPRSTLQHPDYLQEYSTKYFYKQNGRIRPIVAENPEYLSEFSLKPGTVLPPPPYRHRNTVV
Sequence of MARK1 (human) (Q9P0L2 whole entry, looked up): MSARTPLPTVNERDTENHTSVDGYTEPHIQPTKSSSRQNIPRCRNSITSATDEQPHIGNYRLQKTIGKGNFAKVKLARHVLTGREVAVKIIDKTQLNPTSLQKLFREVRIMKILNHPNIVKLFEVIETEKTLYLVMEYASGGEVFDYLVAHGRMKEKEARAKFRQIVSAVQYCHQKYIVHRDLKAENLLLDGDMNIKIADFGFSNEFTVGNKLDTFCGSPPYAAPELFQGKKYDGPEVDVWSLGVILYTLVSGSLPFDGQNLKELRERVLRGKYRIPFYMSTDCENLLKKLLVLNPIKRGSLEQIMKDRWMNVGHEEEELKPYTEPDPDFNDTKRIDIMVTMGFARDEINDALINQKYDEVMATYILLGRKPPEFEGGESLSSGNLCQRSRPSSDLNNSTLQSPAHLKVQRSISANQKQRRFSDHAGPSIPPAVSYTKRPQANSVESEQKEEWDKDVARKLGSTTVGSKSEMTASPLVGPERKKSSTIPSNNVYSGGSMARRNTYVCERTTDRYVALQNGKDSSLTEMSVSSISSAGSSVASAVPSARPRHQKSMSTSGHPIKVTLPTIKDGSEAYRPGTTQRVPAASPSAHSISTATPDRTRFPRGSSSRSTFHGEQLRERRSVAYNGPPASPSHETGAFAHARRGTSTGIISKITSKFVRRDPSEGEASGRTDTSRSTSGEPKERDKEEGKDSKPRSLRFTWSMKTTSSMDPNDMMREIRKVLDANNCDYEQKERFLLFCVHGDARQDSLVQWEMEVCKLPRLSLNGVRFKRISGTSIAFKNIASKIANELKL
Sequence of PAK6 (human) (Q9NQU5 whole entry, looked up): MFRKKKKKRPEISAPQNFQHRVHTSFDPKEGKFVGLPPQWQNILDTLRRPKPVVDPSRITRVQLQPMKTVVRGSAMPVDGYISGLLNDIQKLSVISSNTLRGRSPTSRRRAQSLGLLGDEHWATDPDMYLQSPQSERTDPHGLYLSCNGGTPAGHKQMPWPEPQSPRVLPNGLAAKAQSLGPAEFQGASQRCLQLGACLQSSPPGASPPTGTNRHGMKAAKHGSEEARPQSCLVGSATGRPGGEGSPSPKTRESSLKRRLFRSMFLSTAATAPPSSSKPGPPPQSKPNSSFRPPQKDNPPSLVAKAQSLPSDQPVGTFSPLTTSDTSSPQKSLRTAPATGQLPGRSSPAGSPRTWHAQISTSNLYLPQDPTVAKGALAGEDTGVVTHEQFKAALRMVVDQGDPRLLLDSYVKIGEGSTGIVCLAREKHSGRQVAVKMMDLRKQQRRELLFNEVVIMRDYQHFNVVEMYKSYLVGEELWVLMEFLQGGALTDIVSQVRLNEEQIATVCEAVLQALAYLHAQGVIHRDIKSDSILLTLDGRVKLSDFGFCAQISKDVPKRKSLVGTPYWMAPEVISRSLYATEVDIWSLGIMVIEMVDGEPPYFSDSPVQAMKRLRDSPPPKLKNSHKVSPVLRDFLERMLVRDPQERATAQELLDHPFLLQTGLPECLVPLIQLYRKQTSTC
Sequence of MAPK14 (human) (Q16539 whole entry, looked up): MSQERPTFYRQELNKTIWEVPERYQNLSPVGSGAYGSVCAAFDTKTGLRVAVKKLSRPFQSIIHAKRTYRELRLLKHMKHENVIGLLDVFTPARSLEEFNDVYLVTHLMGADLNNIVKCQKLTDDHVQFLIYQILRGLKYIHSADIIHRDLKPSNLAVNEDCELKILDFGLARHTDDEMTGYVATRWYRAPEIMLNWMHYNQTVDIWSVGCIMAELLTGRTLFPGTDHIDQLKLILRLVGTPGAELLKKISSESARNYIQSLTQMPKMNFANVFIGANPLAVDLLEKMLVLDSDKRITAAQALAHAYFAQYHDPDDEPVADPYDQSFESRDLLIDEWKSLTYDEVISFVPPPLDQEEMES
Sequence of IKBKE (human) (Q14164 whole entry, looked up): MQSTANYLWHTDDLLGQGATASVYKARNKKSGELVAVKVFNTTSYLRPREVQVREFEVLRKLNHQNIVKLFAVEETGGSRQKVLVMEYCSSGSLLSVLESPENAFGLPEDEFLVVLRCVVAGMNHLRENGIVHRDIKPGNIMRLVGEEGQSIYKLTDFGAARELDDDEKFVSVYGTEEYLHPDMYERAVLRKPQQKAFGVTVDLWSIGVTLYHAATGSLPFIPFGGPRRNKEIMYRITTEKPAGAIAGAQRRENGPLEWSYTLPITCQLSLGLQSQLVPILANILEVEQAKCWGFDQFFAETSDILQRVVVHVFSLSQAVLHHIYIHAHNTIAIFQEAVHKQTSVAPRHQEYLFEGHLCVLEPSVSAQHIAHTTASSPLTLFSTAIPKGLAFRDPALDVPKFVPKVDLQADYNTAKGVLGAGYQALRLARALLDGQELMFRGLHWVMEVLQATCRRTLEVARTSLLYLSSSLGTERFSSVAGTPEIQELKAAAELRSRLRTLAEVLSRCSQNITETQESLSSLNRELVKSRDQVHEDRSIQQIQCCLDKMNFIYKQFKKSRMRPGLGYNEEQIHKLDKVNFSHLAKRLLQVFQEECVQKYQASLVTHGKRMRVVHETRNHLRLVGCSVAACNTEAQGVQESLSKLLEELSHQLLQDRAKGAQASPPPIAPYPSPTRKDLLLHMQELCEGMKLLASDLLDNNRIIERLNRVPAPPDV
Sequence of CSNK2A1 (human) (P68400 whole entry, looked up): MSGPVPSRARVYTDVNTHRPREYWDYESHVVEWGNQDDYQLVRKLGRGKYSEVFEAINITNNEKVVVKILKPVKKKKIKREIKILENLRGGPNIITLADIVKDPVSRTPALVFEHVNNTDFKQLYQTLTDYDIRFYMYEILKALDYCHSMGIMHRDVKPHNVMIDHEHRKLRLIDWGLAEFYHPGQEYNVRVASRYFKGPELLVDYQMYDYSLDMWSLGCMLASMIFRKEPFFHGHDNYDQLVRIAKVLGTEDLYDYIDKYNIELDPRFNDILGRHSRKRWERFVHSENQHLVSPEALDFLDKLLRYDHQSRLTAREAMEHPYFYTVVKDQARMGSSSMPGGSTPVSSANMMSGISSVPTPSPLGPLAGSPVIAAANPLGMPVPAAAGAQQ
Sequence of MARK3 (human) (P27448 whole entry, looked up): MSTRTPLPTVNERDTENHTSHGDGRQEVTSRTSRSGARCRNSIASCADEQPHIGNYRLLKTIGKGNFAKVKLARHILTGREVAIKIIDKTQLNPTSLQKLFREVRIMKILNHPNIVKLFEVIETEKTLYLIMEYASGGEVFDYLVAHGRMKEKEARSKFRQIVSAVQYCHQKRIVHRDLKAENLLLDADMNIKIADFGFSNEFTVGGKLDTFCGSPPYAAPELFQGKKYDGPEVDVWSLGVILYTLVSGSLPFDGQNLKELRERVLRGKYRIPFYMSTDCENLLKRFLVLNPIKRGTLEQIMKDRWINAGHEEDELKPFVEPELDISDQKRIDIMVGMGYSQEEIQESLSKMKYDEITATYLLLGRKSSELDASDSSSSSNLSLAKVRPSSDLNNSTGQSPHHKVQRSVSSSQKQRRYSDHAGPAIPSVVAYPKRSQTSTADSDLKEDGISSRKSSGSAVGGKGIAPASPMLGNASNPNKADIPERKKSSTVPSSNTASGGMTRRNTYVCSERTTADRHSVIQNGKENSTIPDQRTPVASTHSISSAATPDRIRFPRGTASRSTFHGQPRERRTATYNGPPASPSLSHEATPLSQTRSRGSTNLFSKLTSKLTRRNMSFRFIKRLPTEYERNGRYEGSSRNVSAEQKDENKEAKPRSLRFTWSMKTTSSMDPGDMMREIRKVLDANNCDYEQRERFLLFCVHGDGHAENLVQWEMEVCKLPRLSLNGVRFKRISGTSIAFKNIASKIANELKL

Compound: c1ccc2c(-c3cnn4cc(-c5ccc(N6CCNCC6)cc5)cnc34)ccnc2c1
- residual activity ([1]; compound 0.1 µM): 102%
- residual activity ([1]; compound 1.0 µM): 103%
- residual activity ([2]; compound 0.1 µM): 111%
- residual activity ([2]; compound 1.0 µM): 94%
- residual activity ([2]; compound 10.0 µM): 52%
- residual activity ([3]; compound 0.1 µM): 90%
- residual activity ([3]; compound 1.0 µM): 89%
- residual activity ([3]; compound 10.0 µM): 81%
- residual activity ([4]; compound 0.1 µM): 86%
- residual activity ([4]; compound 1.0 µM): 85%
- residual activity ([4]; compound 10.0 µM): 45%
- residual activity ([5]; compound 0.1 µM): 89%
- residual activity ([5]; compound 1.0 µM): 91%
- residual activity ([5]; compound 10.0 µM): 72%
- residual activity ([6]; compound 0.1 µM): 75%
- residual activity ([6]; compound 1.0 µM): 40%
- residual activity ([6]; compound 10.0 µM): 9%
- residual activity ([7]; compound 0.1 µM): 108%
- residual activity ([7]; compound 1.0 µM): 107%
- residual activity ([7]; compound 10.0 µM): 77%
- residual activity ([8]; compound 0.1 µM): 86%
- residual activity ([8]; compound 1.0 µM): 89%
- residual activity ([9]; compound 0.1 µM): 95%
- residual activity ([9]; compound 1.0 µM): 96%
- residual activity ([9]; compound 10.0 µM): 79%
- residual activity ([10]; compound 0.1 µM): 81%
- residual activity ([10]; compound 1.0 µM): 81%
- residual activity ([10]; compound 10.0 µM): 50%
- residual activity ([11]; compound 0.1 µM): 117%
- residual activity ([11]; compound 10.0 µM): 100%
- residual activity ([12]; compound 0.1 µM): 88%
- residual activity ([12]; compound 1.0 µM): 75%
- residual activity ([12]; compound 10.0 µM): 48%
- residual activity ([13]; compound 0.1 µM): 88%
- residual activity ([13]; compound 1.0 µM): 76%
- residual activity ([13]; compound 10.0 µM): 56%
- residual activity ([14]; compound 0.1 µM): 97%
- residual activity ([14]; compound 1.0 µM): 99%
- residual activity ([14]; compound 10.0 µM): 85%
- residual activity ([15]; compound 0.1 µM): 93%
- residual activity ([15]; compound 1.0 µM): 91%
- residual activity ([15]; compound 10.0 µM): 56%
- residual activity ([16]; compound 0.1 µM): 104%
- residual activity ([16]; compound 10.0 µM): 90%
- residual activity ([17]; compound 0.1 µM): 87%
- residual activity ([17]; compound 1.0 µM): 89%
- residual activity ([17]; compound 10.0 µM): 56%
- residual activity ([18]; compound 0.1 µM): 81%
- residual activity ([18]; compound 1.0 µM): 40%
- residual activity ([18]; compound 10.0 µM): 7%
- residual activity ([19]; compound 0.1 µM): 87%
- residual activity ([19]; compound 1.0 µM): 89%
- residual activity ([19]; compound 10.0 µM): 104%
- residual activity ([20]; compound 0.1 µM): 104%
- residual activity ([20]; compound 1.0 µM): 70%
- residual activity ([21]; compound 1.0 µM): 104%
- residual activity ([21]; compound 10.0 µM): 96%
- residual activity ([22]; compound 0.1 µM): 89%
- residual activity ([22]; compound 1.0 µM): 110%
- residual activity ([22]; compound 10.0 µM): 72%
- residual activity ([23]; compound 0.1 µM): 78%
- residual activity ([23]; compound 1.0 µM): 84%
- residual activity ([23]; compound 10.0 µM): 75%
- residual activity ([24]; compound 0.1 µM): 89%
- residual activity ([24]; compound 1.0 µM): 100%
- residual activity ([24]; compound 10.0 µM): 60%
- residual activity ([25]; compound 0.1 µM): 88%
- residual activity ([25]; compound 1.0 µM): 54%
- residual activity ([25]; compound 10.0 µM): 14%
- residual activity ([26]; compound 0.1 µM): 78%
- residual activity ([26]; compound 1.0 µM): 34%
- residual activity ([26]; compound 10.0 µM): 11%
- residual activity ([27]; compound 0.1 µM): 105%
- residual activity ([27]; compound 1.0 µM): 123%
- residual activity ([27]; compound 10.0 µM): 181%
- residual activity ([28]; compound 0.1 µM): 80%
- residual activity ([28]; compound 1.0 µM): 83%
- residual activity ([28]; compound 10.0 µM): 88%
- residual activity ([29]; compound 0.1 µM): 57%
- residual activity ([29]; compound 1.0 µM): 17%
- residual activity ([29]; compound 10.0 µM): 5%
- residual activity ([30]; compound 0.1 µM): 82%
- residual activity ([30]; compound 1.0 µM): 94%
- residual activity ([30]; compound 10.0 µM): 62%
- residual activity ([31]; compound 0.1 µM): 108%
- residual activity ([31]; compound 1.0 µM): 107%
- residual activity ([31]; compound 10.0 µM): 100%
- residual activity ([32]; compound 0.1 µM): 95%
- residual activity ([32]; compound 1.0 µM): 82%
- residual activity ([32]; compound 10.0 µM): 72%
- residual activity ([33]; compound 0.1 µM): 88%
- residual activity ([33]; compound 1.0 µM): 93%
- residual activity ([33]; compound 10.0 µM): 55%
- residual activity ([34]; compound 0.1 µM): 98%
- residual activity ([34]; compound 1.0 µM): 86%
- residual activity ([34]; compound 10.0 µM): 85%
- residual activity ([35]; compound 0.1 µM): 91%
- residual activity ([35]; compound 1.0 µM): 83%
- residual activity ([35]; compound 10.0 µM): 87%
- residual activity ([36]; compound 0.1 µM): 102%
- residual activity ([36]; compound 1.0 µM): 110%
- residual activity ([36]; compound 10.0 µM): 79%
